{"source": "patent US20190192699A1", "about": "“NUCLEAR IMAGING AND RADIOTHERAPEUTICS AGENTS TARGETING CARBONIC ANHYDRASE IX AND USES THEREOF” (THE JOHNS HOPKINS UNIVERSITY, priority 2016, published 2019)", "key": {"[1]": {"test_system": "SK-RC-52 xenografts", "assay": "Biodistribution of [111In]XYIMSR-01 and [177Lu]XYIMSR-01", "type": "in vivo, mice", "experimental": "(§1) Cell Lines and Mouse Models. Animal experiments were performed in accordance with protocols approved by the Johns Hopkins Animal Care and Use Committee (ACUC). Six-week-old female NOD/SCID mice were purchased from the Animal Resource Core of the Sidney Kimmel Comprehensive Cancer Center of Johns Hopkins and were subcutaneously injected in the lower left flank or upper right flank with 1×10^6 SK-RC-52 cells in RPMI 1640 GlutaMAX™ media (Life Technologies, Frederick, Md.) supplemented with 1% fetal bovine serum (FBS). Mice were monitored for tumor size and used for SPECT/CT imaging when the size of the tumor reached 100 mm^3.\nBiodistribution of [^111In]XYIMSR-01 and [^177Lu]XYIMSR-01. Mice bearing SK-RC-52 xenografts at lower left flank were injected intravenously with 740 kBq (20 μCi) of [^111In]XYIMSR-01, or [^177Lu]XYIMSR-01 in 200 μL of PBS. For competitive blocking, same tumor bearing mice were injected with 740 kBq (20 μCi) of [^111In]XYIMSR-01 and 200 nmole of 1 in 200 μL of PBS. At 1 h, 4 h, 8 h, 24 h and 48 h post-injection, mice were sacrificed by cervical dislocation and the blood was immediately collected by cardiac puncture. Heart, lungs, pancreas, spleen, fat, brain, muscle, small intestines, liver, stomach, kidney, urinary bladder, and tumor were collected. Each organ was weighed and the tissue radioactivity was measured with an automated gamma counter (1282 Compugamma CS, Pharmacia/LKBNuclear, Inc., Mt. Waverly, Vic. Australia). The percentage of injected dose per gram of tissue (% ID/g) was calculated by comparison with samples of a standard dilution of the initial dose. All measurements were corrected for radioactive decay.\nData were expressed as mean±standard deviation (SD). Prism software (GraphPAD, San Diego, Calif.) was used to determine statistical significance. Statistical significance was calculated using a paired t test. P-values […] were considered significant."}, "[2]": {"test_system": "CAIX-expressing SK-RC-52 tumors", "assay": "SPECT/CT imaging of [111In]XYIMSR-01", "type": "in vivo, mice", "settings": "14.8 MBq (400 μCi) via tail vein", "experimental": "as §1\nSPECT/CT imaging of [^111In]XYIMSR-01. Mice harboring subcutaneous SK-RC-52 tumors with the lower left flank were injected with 14.8 MBq (400 μCi) of [^111In]XYIMSR-01 in 250 μL of PBS (pH=7.0) intravenously (tail vein). Anesthesia was then induced with 3% isofluorane and maintained at 2% isoflurane. Physiologic temperature was maintained with an external light source while the mouse was on the gantry. Imaging employed a CT-equipped Gamma Medica-Ideas SPECT scanner (Northridge, Calif.). SPECT data were acquired in 64 projections at 65 s per projection using medium energy pinhole collimators. A CT scan was performed in 512 projections at the end of each SPECT scan for anatomic co-registration. […]"}, "[3]": {"settings": "24 hr + Block (200 nmole of 1 co-injected)"}, "[4]": {"settings": "48 hr + Block (200 nmole of 1 co-injected)"}}, "note": "“And” between values parts separate entries of the source, which are not always exact repeats. Equal entries are not always repeated. “Also recorded” adds a separate entry of the source."}
{"smiles": "CC(CCC(=O)N[C@@H](CC(=O)N[C@@H](CC(=O)N[C@@H](CCCCn1cc(CCCC(=O)Nc2nnc(S(N)(=O)=O)s2)nn1)C(=O)NCCOCCOCCNC(=O)CN1CCN(CC(=O)[O-])CCN(CC(=O)[O-])CCN(CC(=O)[O-])CC1)C(=O)O)C(=O)O)(c1ccc(O)cc1)c1ccc(O)cc1.[111In+3]", "note": "[[^111In]XYIMSR-01]", "values": [{"measurement": "Biodistribution: Lung", "setting": "[1]; [3]", "value": "0.12 ± 0.02", "unit": "% ID/g"}, {"measurement": "Biodistribution: Muscle", "setting": "[1]; [3]", "value": "0.02 ± 0.00", "unit": "% ID/g"}, {"measurement": "Biodistribution: Pancreas", "setting": "[1]; [3]", "value": "0.03 ± 0.00", "unit": "% ID/g"}, {"measurement": "Biodistribution: Small intestine", "setting": "[1]; [3]", "value": "0.08 ± 0.01", "unit": "% ID/g"}, {"measurement": "Biodistribution: Spleen", "setting": "[1]; [3]", "value": "0.08 ± 0.01", "unit": "% ID/g"}, {"measurement": "Biodistribution: Stomach", "setting": "[1]; [3]", "value": "0.14 ± 0.02", "unit": "% ID/g"}, {"measurement": "Biodistribution: Tumor", "setting": "[1]; [3]", "value": "1.41 ± 0.20", "unit": "% ID/g"}, {"measurement": "Tumor/Blood ratio", "setting": "[1]; [3]", "value": "45.2 ± 9.7"}, {"measurement": "Tumor/Kidney ratio", "setting": "[1]; [3]", "value": "2.1 ± 0.3"}, {"measurement": "Tumor/Muscle ratio", "setting": "[1]; [3]", "value": "91.4 ± 11.1"}, {"measurement": "Biodistribution: Bladder", "setting": "[1]; 24 hr post-injection", "value": "0.74 ± 0.17", "unit": "% ID/g"}, {"measurement": "Biodistribution: Blood", "setting": "[1]; 24 hr post-injection", "value": "0.15 ± 0.02", "unit": "% ID/g"}, {"measurement": "Biodistribution: Brain", "setting": "[1]; 24 hr post-injection", "value": "0.71 ± 0.85", "unit": "% ID/g"}, {"measurement": "Biodistribution: Fat", "setting": "[1]; 24 hr post-injection", "value": "0.28 ± 0.19", "unit": "% ID/g"}, {"measurement": "Biodistribution: Heart", "setting": "[1]; 24 hr post-injection", "value": "1.16 ± 0.20", "unit": "% ID/g"}, {"measurement": "Biodistribution: Kidney", "setting": "[1]; 24 hr post-injection", "value": "15.29 ± 1.69", "unit": "% ID/g"}, {"measurement": "Biodistribution: Liver", "setting": "[1]; 24 hr post-injection", "value": "3.02 ± 3.46", "unit": "% ID/g"}, {"measurement": "Biodistribution: Lung", "setting": "[1]; 24 hr post-injection", "value": "11.01 ± 3.71", "unit": "% ID/g"}, {"measurement": "Biodistribution: Muscle", "setting": "[1]; 24 hr post-injection", "value": "0.35 ± 0.12", "unit": "% ID/g"}, {"measurement": "Biodistribution: Pancreas", "setting": "[1]; 24 hr post-injection", "value": "0.69 ± 0.18", "unit": "% ID/g"}, {"measurement": "Biodistribution: Small intestine", "setting": "[1]; 24 hr post-injection", "value": "2.11 ± 0.33", "unit": "% ID/g"}, {"measurement": "Biodistribution: Spleen", "setting": "[1]; 24 hr post-injection", "value": "0.69 ± 0.39", "unit": "% ID/g"}, {"measurement": "Biodistribution: Stomach", "setting": "[1]; 24 hr post-injection", "value": "3.31 ± 1.25", "unit": "% ID/g"}, {"measurement": "Biodistribution: Tumor", "setting": "[1]; 24 hr post-injection", "value": "25.6 % ID/g and 25.62 ± 17.67 % ID/g"}, {"measurement": "Tumor/Blood ratio", "setting": "[1]; 24 hr post-injection", "value": "178.1±145.4 and 178"}, {"measurement": "Tumor/Kidney ratio", "setting": "[1]; 24 hr post-injection", "value": "1.7±1.2 and 1.7"}, {"measurement": "Tumor/Muscle ratio", "setting": "[1]; 24 hr post-injection", "value": "68.4±29.0 and 68"}, {"measurement": "Biodistribution: Bladder", "setting": "[1]; [4]", "value": "0.14 ± 0.03", "unit": "% ID/g"}, {"measurement": "Biodistribution: Blood", "setting": "[1]; [4]", "value": "0.03 ± 0.00", "unit": "% ID/g"}, {"measurement": "Biodistribution: Brain", "setting": "[1]; [4]", "value": "0.03 ± 0.01", "unit": "% ID/g"}, {"measurement": "Biodistribution: Fat", "setting": "[1]; [4]", "value": "0.03 ± 0.01", "unit": "% ID/g"}, {"measurement": "Biodistribution: Heart", "setting": "[1]; [4]", "value": "0.04 ± 0.01", "unit": "% ID/g"}, {"measurement": "Biodistribution: Kidney", "setting": "[1]; [4]", "value": "0.45 ± 0.09", "unit": "% ID/g"}, {"measurement": "Biodistribution: Liver", "setting": "[1]; [4]", "value": "0.13 ± 0.04", "unit": "% ID/g"}, {"measurement": "Biodistribution: Lung", "setting": "[1]; [4]", "value": "0.09 ± 0.02", "unit": "% ID/g"}, {"measurement": "Biodistribution: Muscle", "setting": "[1]; [4]", "value": "0.02 ± 0.00", "unit": "% ID/g"}, {"measurement": "Biodistribution: Pancreas", "setting": "[1]; [4]", "value": "0.03 ± 0.01", "unit": "% ID/g"}, {"measurement": "Biodistribution: Small intestine", "setting": "[1]; [4]", "value": "0.08 ± 0.02", "unit": "% ID/g"}, {"measurement": "Biodistribution: Spleen", "setting": "[1]; [4]", "value": "0.11 ± 0.03", "unit": "% ID/g"}, {"measurement": "Biodistribution: Stomach", "setting": "[1]; [4]", "value": "0.14 ± 0.03", "unit": "% ID/g"}, {"measurement": "Biodistribution: Tumor", "setting": "[1]; [4]", "value": "1.22 ± 0.54", "unit": "% ID/g"}, {"measurement": "Tumor/Blood ratio", "setting": "[1]; [4]", "value": "45.4 ± 13.8"}, {"measurement": "Tumor/Kidney ratio", "setting": "[1]; [4]", "value": "2.7 ± 0.8"}, {"measurement": "Tumor/Muscle ratio", "setting": "[1]; [4]", "value": "75.1 ± 17.7"}, {"measurement": "Biodistribution: Bladder", "setting": "[1]; 48 hr post-injection", "value": "0.38 ± 0.18", "unit": "% ID/g"}, {"measurement": "Biodistribution: Blood", "setting": "[1]; 48 hr post-injection", "value": "0.06 ± 0.02", "unit": "% ID/g"}, {"measurement": "Biodistribution: Brain", "setting": "[1]; 48 hr post-injection", "value": "0.41 ± 0.05", "unit": "% ID/g"}, {"measurement": "Biodistribution: Fat", "setting": "[1]; 48 hr post-injection", "value": "0.25 ± 0.08", "unit": "% ID/g"}, {"measurement": "Biodistribution: Heart", "setting": "[1]; 48 hr post-injection", "value": "0.84 ± 0.16", "unit": "% ID/g"}, {"measurement": "Biodistribution: Kidney", "setting": "[1]; 48 hr post-injection", "value": "8.78 ± 1.89", "unit": "% ID/g"}, {"measurement": "Biodistribution: Liver", "setting": "[1]; 48 hr post-injection", "value": "1.65 ± 0.26", "unit": "% ID/g"}, {"measurement": "Biodistribution: Lung", "setting": "[1]; 48 hr post-injection", "value": "9.22 ± 1.25", "unit": "% ID/g"}, {"measurement": "Biodistribution: Muscle", "setting": "[1]; 48 hr post-injection", "value": "0.39 ± 0.28", "unit": "% ID/g"}, {"measurement": "Biodistribution: Pancreas", "setting": "[1]; 48 hr post-injection", "value": "0.59 ± 0.18", "unit": "% ID/g"}, {"measurement": "Biodistribution: Small intestine", "setting": "[1]; 48 hr post-injection", "value": "1.22 ± 0.44", "unit": "% ID/g"}, {"measurement": "Biodistribution: Spleen", "setting": "[1]; 48 hr post-injection", "value": "0.67 ± 0.13", "unit": "% ID/g"}, {"measurement": "Biodistribution: Stomach", "setting": "[1]; 48 hr post-injection", "value": "1.82 ± 0.43", "unit": "% ID/g"}, {"measurement": "Biodistribution: Tumor", "setting": "[1]; 48 hr post-injection", "value": "13.9 % ID/g and 13.92 ± 6.67 % ID/g"}, {"measurement": "Tumor/Blood ratio", "setting": "[1]; 48 hr post-injection", "value": "212.0 ± 41.4"}, {"measurement": "Tumor/Kidney ratio", "setting": "[1]; 48 hr post-injection", "value": "1.5 ± 0.5"}, {"measurement": "Tumor/Muscle ratio", "setting": "[1]; 48 hr post-injection", "value": "52.0 ± 21.0"}, {"measurement": "SPECT/CT tumor imaging finding", "setting": "[2]", "value": "radiotracer uptake in tumor as early as 1 h post-injection; also recorded: radiotracer uptake was observed within the tumors at 1 h post-injection; also recorded: enabled specific imaging of CAIX-expressing SK-RC-52 tumors"}]}
